Experiments:
ER in MCF-7 cells = ER in MCF-7 cells (Homo sapiens (Human), UniProt P03372); assay: In-cell western (ICW) ER degradation assay in MCF-7 cells (Compounds A1-A70); format: cell-based; settings: MCF-7 cells, 16 hrs treatment; for DC50: ER degradation, 0.02 to 300 nM, read-out: MCF7 ICW DC50; for Dmax: MCF7, maximal ER degradation, read-out: MCF7 ICW Dmax (%)
Description: (§1) ERa degradative activity of compounds can be assessed in MCF-7 and T47D Cells. MCF-7 and T47D cell are seeded and are subsequently treated with the compounds at certain concentrations (e.g., 0.02 to 300 nM). DMSO can be used as vehicle control. Cells are fixed and are blocked with Intercept (PBS) Blocking Buffer (e.g., Li—COR, Odyssey Blocking Buffer), and are stained with ER (e.g., 1:500, Cell signaling) primary antibody for overnight at cold room. Secondary Antibody (e.g., IRDye 800CW Goat anti-Rabbit IgG) and CellTag 700 Stain are added in Intercept (PBS) Blocking Buffer. Finally, cell plate is placed in incubator to dry. Image and signal are captured on Odyssey® DLx Imaging System.
(§2) Day 3: After 16 hrs of compounds treatment, cells were fixed by 4% PFA and permeabilized with elution buffer (0.1% Triton X-100 in 1% PBS Solution). Subsequently, cells were blocked with Intercept (PBS) Blocking Buffer (Li—COR, Odyssey Blocking Buffer), and were stained with ER (1:500, Cell signaling) primary antibody for overnight at cold room.
(§3) Day 4: Remove the buffer, add IRDye 800CW Goat anti-Rabbit IgG Secondary Antibody (1:2000) and CellTag 700 Stain (1:500) in Intercept (PBS) Blocking Buffer. Finally, cell plate is placed in incubator to dry. Image and signal were captured on Odyssey® DLx Imaging System.

CRBN/DDB1 = CRBN/DDB1 (Homo sapiens (Human), UniProt Q96SW2); format: binding; settings: His tagged CRBN+DDB-DLS7+CXU4, Cy5-labeled Thalidomide probe, one hour incubation; read-out: CRBN HTRF IC50
Sequence of CRBN/DDB1 (Q96SW2 whole entry): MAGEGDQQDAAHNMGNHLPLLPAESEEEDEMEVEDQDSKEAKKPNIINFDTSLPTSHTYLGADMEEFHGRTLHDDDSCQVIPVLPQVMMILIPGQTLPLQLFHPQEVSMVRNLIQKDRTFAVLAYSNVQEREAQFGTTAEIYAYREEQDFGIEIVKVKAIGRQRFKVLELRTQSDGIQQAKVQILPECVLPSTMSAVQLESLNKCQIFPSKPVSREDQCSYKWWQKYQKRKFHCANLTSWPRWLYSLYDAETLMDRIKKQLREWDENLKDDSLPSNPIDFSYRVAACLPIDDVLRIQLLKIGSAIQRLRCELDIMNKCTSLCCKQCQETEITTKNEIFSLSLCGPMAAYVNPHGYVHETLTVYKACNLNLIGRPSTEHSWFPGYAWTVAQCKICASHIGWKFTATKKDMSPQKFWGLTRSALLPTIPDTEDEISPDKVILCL
Sequence of CRBN/DDB1 (Q16531 whole entry partner): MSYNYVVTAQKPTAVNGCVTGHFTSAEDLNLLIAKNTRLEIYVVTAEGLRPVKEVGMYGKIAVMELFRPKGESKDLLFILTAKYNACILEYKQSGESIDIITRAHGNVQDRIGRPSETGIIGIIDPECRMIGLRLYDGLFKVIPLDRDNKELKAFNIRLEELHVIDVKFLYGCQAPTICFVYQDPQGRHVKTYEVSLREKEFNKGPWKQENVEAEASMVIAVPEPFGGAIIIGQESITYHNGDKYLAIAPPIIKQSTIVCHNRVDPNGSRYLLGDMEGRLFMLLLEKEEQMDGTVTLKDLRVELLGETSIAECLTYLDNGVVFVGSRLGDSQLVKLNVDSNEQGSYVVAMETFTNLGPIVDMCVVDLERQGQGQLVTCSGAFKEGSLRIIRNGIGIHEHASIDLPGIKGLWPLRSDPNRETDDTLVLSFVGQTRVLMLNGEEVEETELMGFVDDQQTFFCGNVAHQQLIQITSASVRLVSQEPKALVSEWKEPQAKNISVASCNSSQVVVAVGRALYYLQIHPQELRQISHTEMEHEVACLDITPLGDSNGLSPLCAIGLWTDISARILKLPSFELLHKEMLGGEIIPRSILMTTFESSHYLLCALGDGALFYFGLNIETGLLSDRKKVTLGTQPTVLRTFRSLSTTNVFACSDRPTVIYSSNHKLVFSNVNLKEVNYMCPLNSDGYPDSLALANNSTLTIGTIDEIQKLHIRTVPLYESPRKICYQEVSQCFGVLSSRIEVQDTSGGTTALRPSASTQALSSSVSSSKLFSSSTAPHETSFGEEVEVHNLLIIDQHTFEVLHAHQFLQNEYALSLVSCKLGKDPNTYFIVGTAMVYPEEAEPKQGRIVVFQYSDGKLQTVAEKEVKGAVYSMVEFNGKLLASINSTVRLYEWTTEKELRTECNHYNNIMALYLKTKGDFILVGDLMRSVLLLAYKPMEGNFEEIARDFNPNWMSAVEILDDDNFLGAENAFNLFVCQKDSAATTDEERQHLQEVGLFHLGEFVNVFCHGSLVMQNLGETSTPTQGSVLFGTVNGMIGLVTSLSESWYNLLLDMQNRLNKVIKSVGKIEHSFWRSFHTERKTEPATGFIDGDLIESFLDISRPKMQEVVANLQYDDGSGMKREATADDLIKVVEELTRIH
Description: The binding potency was determined using H-TRF assay technology (Perkin Elmer). Compounds were serially diluted in DMSO and 0.2 μL volume was transferred to white 384-well plate.

ER in T47D cells = ER in T47D cells (Homo sapiens (Human), UniProt P03372); assay: In-cell western (ICW) ER degradation assay in T47D cells (Compounds A1-A70); format: cell-based; settings: T47D cells, 16 hrs treatment; for DC50: ER degradation, 0.02 to 300 nM; for Dmax: T47D, maximal ER degradation, read-out: T47D ICW Dmax (%)
Sequence of ER in T47D cells (P03372 whole entry): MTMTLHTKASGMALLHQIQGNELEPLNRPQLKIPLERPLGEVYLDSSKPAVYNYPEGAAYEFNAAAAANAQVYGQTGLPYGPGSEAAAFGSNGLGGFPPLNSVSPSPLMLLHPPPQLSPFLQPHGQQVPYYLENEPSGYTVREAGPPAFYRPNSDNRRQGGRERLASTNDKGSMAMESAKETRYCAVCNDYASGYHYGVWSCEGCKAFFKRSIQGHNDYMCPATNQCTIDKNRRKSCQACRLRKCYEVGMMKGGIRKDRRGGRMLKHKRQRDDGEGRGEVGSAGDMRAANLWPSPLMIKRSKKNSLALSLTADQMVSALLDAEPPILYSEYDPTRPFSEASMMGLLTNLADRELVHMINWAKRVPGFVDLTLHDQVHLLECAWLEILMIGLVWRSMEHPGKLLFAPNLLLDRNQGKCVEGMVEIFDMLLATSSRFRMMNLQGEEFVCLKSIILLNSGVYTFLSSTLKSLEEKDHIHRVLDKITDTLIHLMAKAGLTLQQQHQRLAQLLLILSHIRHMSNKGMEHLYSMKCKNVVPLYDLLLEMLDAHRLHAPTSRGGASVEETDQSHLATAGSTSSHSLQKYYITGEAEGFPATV
Description: as §1, §2, §3

Sequence of ER in MCF-7 cells (P03372 whole entry): as above

| SMILES | DC50 (ER in MCF-7 cells) | Dmax (ER in MCF-7 cells) | IC50 (CRBN/DDB1) | DC50 (ER in T47D cells) | Dmax (ER in T47D cells) |
| --- | --- | --- | --- | --- | --- |
| C[C@@H]1Cc2c([nH]c3ccccc23)[C@@H](c2cnc(N3CCC(CN4CCN5c6ccc7c(c6OC[C@@H]5C4)CN(C4CCC(=O)NC4=O)C7=O)CC3)nc2)N1CC(F)F (stereo partly drawn) [Compound A5, 3-((S)-7-((1-(5-((1R,3R)-2-(2,2-difluoroethyl)-3-methyl-2,3,4,9-tetrahydro-1H-pyrido[3,4-b]indol-1-yl)pyrimidin-2-yl)piperidin-4-yl)methyl)-1-oxo-1,3,5,5a,6,7,8,9-octahydro-2H-pyrazino[1′,2′:4,5]oxazino[2,3-e]isoindol-2-yl)piperidine-2,6-dione] | 1 to 10 nM | 50 to 75% | 50 to 500 nM |  |  |
| C[C@@H]1Cc2c([nH]c3ccccc23)[C@@H](c2cnc(N3CCC4(CCC(CN5CCN6c7cc8c(cc7OC[C@@H]6C5)C(=O)N([C@H]5CCC(=O)NC5=O)C8)CC4)CC3)nc2)N1CC(C)(C)F [Compound A9, (S)-3-((S)-3-((3-(5-((1R,3R)-2-(2-fluoro-2-methylpropyl)-3-methyl-2,3,4,9-tetrahydro-1H-pyrido[3,4-b]indol-1-yl)pyrimidin-2-yl)-3-azaspiro[5.5]undecan-9-yl)methyl)-8-oxo-1,2,3,4,4a,5,8,10-octahydro-9H-pyrazino[1′,2′:4,5][1,4]oxazino[2,3-f]isoindol-9-yl)piperidine-2,6-dione] | < 1 nM | 25 to 50% | > 5000 nM |  |  |
| C[C@@H]1Cc2c([nH]c3ccccc23)[C@@H](c2ccc(N3CCC4(CC3)CC(CN3CCN5c6cc7c(cc6OC[C@@H]5C3)C(=O)N([C@H]3CCC(=O)NC3=O)C7)C4)nc2)N1CC(F)F [Compound A11, (S)-3-((S)-3-((7-(5-((1R,3R)-2-(2,2-difluoroethyl)-3-methyl-2,3,4,9-tetrahydro-1H-pyrido[3,4-b]indol-1-yl)pyridin-2-yl)-7-azaspiro[3.5]nonan-2-yl)methyl)-8-oxo-1,2,3,4,4a,5,8,10-octahydro-9H-pyrazino[1′,2′:4,5][1,4]oxazino[2,3-f]isoindol-9-yl)piperidine-2,6-dione] | 1 to 10 nM | 50 to 75% | 500 to 5000 nM |  |  |
| Cc1nn(C2CCC(=O)NC2=O)c2ccc(N3CCN(CC4CC5(CCN(c6ncc([C@@H]7c8[nH]c9ccccc9c8C[C@@H](C)N7CC(C)(C)F)cn6)CC5)C4)CC3)cc12 (stereo partly drawn) [Compound A15, 3-(5-(4-((7-(5-((1R,3R)-2-(2-fluoro-2-methylpropyl)-3-methyl-2,3,4,9-tetrahydro-1H-pyrido[3,4-b]indol-1-yl)pyrimidin-2-yl)-7-azaspiro[3.5]nonan-2-yl)methyl)piperazin-1-yl)-3-methyl-1H-indazol-1-yl)piperidine-2,6-dione] |  |  | < 50 nM |  |  |
| C[C@@H]1Cc2c([nH]c3ccccc23)[C@@H](c2cnc(N3CCC4(CC3)CC(CN3CCN(c5ccc(NC6CCC(=O)NC6=O)cc5F)CC3)C4)nc2)N1CC(F)F (stereo partly drawn) [Compound A16, 3-((4-(4-((7-(5-((1R,3R)-2-(2,2-difluoroethyl)-3-methyl-2,3,4,9-tetrahydro-1H-pyrido[3,4-b]indol-1-yl)pyrimidin-2-yl)-7-azaspiro[3.5]nonan-2-yl)methyl)piperazin-1-yl)-3-fluorophenyl)amino)piperidine-2,6-dione] |  |  | 50 to 500 nM |  |  |
| CS(=O)(=O)N1CCc2c([nH]c3ccccc23)[C@H]1c1c(F)cc(N2CCC(CN3CCN4c5cc6c(cc5OC[C@@H]4C3)C(=O)N([C@H]3CCC(=O)NC3=O)C6)CC2)cc1F [Compound A17, (S)-3-((S)-3-((1-(3,5-difluoro-4-((R)-2-(methylsulfonyl)-2,3,4,9-tetrahydro-1H-pyrido[3,4-b]indol-1-yl)phenyl)piperidin-4-yl)methyl)-8-oxo-1,2,3,4,4a,5,8,10-octahydro-9H-pyrazino[1′,2′:4,5][1,4]oxazino[2,3-f]isoindol-9-yl)piperidine-2,6-dione] |  |  | > 5000 nM |  |  |
| C[C@@H]1Cc2c([nH]c3ccccc23)[C@@H](c2cnc(OC3CC(C(=O)N4CCC(N5Cc6cc7c(cc6C5)C(=O)N(C5CCC(=O)NC5=O)C7=O)CC4)C3)nc2)N1CC(F)F (stereo partly drawn) [Compound A18, 6-(1-((1R,3r)-3-((5-((1R,3R)-2-(2,2-difluoroethyl)-3-methyl-2,3,4,9-tetrahydro-1H-pyrido[3,4-b]indol-1-yl)pyrimidin-2-yl)oxy)cyclobutane-1-carbonyl)piperidin-4-yl)-2-(2,6-dioxopiperidin-3-yl)-6,7-dihydropyrrolo[3,4-f]isoindole-1,3(2H,5H)-dione] |  |  | 50 to 500 nM |  |  |
| CS(=O)(=O)N1CCc2c([nH]c3ccccc23)[C@@H]1c1c(F)cc(N2CCC3(CCN(C(=O)CN4Cc5cc6c(cc5C4)C(=O)N(C4CCC(=O)NC4=O)C6=O)CC3)CC2)cc1F (stereo partly drawn) [Compound A20, 6-(2-(9-(3,5-difluoro-4-((S)-2-(methylsulfonyl)-2,3,4,9-tetrahydro-1H-pyrido[3,4-b]indol-1-yl)phenyl)-3,9-diazaspiro[5.5]undecan-3-yl)-2-oxoethyl)-2-(2,6-dioxopiperidin-3-yl)-6,7-dihydropyrrolo[3,4-f]isoindole-1,3(2H,5H)-dione] |  |  | > 5000 nM |  |  |
| CS(=O)(=O)N1CCc2c([nH]c3ccccc23)[C@H]1c1c(F)cc(N2CCC3(CCN(C(=O)CN4Cc5cc6c(cc5C4)C(=O)N(C4CCC(=O)NC4=O)C6=O)CC3)CC2)cc1F (stereo partly drawn) [Compound A21, 6-(2-(9-(3,5-difluoro-4-((R)-2-(methylsulfonyl)-2,3,4,9-tetrahydro-1H-pyrido[3,4-b]indol-1-yl)phenyl)-3,9-diazaspiro[5.5]undecan-3-yl)-2-oxoethyl)-2-(2,6-dioxopiperidin-3-yl)-6,7-dihydropyrrolo[3,4-f]isoindole-1,3(2H,5H)-dione] |  |  | > 5000 nM |  |  |
| C[C@@H]1Cc2c([nH]c3ccccc23)[C@@H](c2ccc(N3CCC4(CC3)CC(CN3CCN5c6ccc7c(c6OC[C@@H]5C3)CN([C@H]3CCC(=O)NC3=O)C7=O)C4)nc2)N1CC(F)F [Compound A24, (S)-3-((S)-7-((7-(5-((1R,3R)-2-(2,2-difluoroethyl)-3-methyl-2,3,4,9-tetrahydro-1H-pyrido[3,4-b]indol-1-yl)pyridin-2-yl)-7-azaspiro[3.5]nonan-2-yl)methyl)-1-oxo-1,3,5,5a,6,7,8,9-octahydro-2H-pyrazino[1′,2′:4,5][1,4]oxazino[2,3-e]isoindol-2-yl)piperidine-2,6-dione] | 10 to 100 nM | 25 to 50% | < 50 nM |  |  |
| C[C@@H]1Cc2c([nH]c3ccccc23)[C@@H](c2cnc(N3CCC4(CC3)CC(CN3CCC5(CC3)COc3cc6c(cc35)CN(C3CCC(=O)NC3=O)C6=O)C4)nc2)N1CC(F)F (stereo partly drawn) [Compound A26, 3-(1′-((7-(5-((1R,3R)-2-(2,2-difluoroethyl)-3-methyl-2,3,4,9-tetrahydro-1H-pyrido[3,4-b]indol-1-yl)pyrimidin-2-yl)-7-azaspiro[3.5]nonan-2-yl)methyl)-7-oxo-5,7-dihydro-2H,6H-spiro[furo[2,3-f]isoindole-3,4′-piperidin]-6-yl)piperidine-2,6-dione] |  |  | 500 to 5000 nM |  |  |
| C[C@@H]1Cc2c([nH]c3ccccc23)[C@@H](c2cnc(N3CCN(CC4CCN(c5ccc(N6CCC(=O)NC6=O)cc5)CC4)CC3)nc2)N1CC(F)F [Compound A38, 1-(4-(4-((4-(5-((1R,3R)-2-(2,2-difluoroethyl)-3-methyl-2,3,4,9-tetrahydro-1H-pyrido[3,4-b]indol-1-yl)pyrimidin-2-yl)piperazin-1-yl)methyl)piperidin-1-yl)phenyl)dihydropyrimidine-2,4(1H,3H)-dione] |  |  | 500 to 5000 nM | 1 to 10 nM | < 25% |
| COc1cc(N2CCC(CN3CCC(c4ccc(N[C@H]5CCC(=O)NC5=O)c(F)c4)CC3)CC2)ccc1[C@@H]1c2[nH]c3ccccc3c2C[C@@H](C)N1CC(F)F [Compound A40, (S)-3-((4-(1-((1-(4-((1R,3R)-2-(2,2-difluoroethyl)-3-methyl-2,3,4,9-tetrahydro-1H-pyrido[3,4-b]indol-1-yl)-3-methoxyphenyl)piperidin-4-yl)methyl)piperidin-4-yl)-2-fluorophenyl)amino)piperidine-2,6-dione] |  |  | > 5000 nM | < 1 nM | 25 to 50% |
| COc1cc(N2CCC(CN3CCN(c4cnc(C(=O)NC5CCC(=O)NC5=O)cc4OC)CC3)CC2)ccc1[C@@H]1c2[nH]c3ccccc3c2C[C@@H](C)N1CC(F)F (stereo partly drawn) [Compound A56, 5-(4-((1-(4-((1R,3R)-2-(2,2-difluoroethyl)-3-methyl-2,3,4,9-tetrahydro-1H-pyrido[3,4-b]indol-1-yl)-3-methoxyphenyl)piperidin-4-yl)methyl)piperazin-1-yl)-N-(2,6-dioxopiperidin-3-yl)-4-methoxypicolinamide] | < 1 nM | 50 to 75% | > 5000 nM |  |  |

— patent publication US20260007681A1, “INDOLE DERIVATIVES AS ESTROGEN RECEPTOR DEGRADERS” (REGENTS OF THE UNIVERSITY OF MICHIGAN, priority 2022, published 2026)
